Laboratory results reported in patent US9840500B2, “Compounds as dual inhibitors of histone methyltransferases and DNA methyltransferases” (FUNDACIÓN PARA LA INVESTIGACIÓN MÉDICA APLICADA, priority 2014, dated 2017).

How the values were obtained:
[1] = tested on: human B-ALL mice model with CEMO-1 cell line; test: In vivo therapeutic activity in the preclinical human B-ALL mice model with CEMO-1 cell line; design: species or system BALB/cA-Rag2−/−γc−/− mice
Method: To examine the in vivo activity, a preclinical model of human B-ALL with RAG2 mouse was used. Six to eight-week old female BALB/cA-Rag2^−/−γc^−/− mice were purchased from The Netherlands Cancer Institute and maintained in pathogen-free isolation cages. RAG2 mice were injected intravenously (i.v.) with 10×10^6 CEMO-1 cells via tail vein to generate the human B-ALL mice model. Animals in groups of six were treated starting at day three after cells inoculation. The first group served as control and received placebo (saline) daily for 28 consecutive days, via i.v. injection.
The second group was treated with 3-04 (2.5 mg/kg) daily for 28 consecutive days via i.v. Animals were monitored weekly for weight loss and signs of tumour burden by flow cytometry of human cells. The median survival for 3-04 treated mice (N=6) was 91 days (SD: ±5.72) compared to 57 days (SD: ±10.52) for control mice (N=6) after cells inoculation.

OCI-Ly1 = test: Cell proliferation assay, OCI-Ly1 (GC-DLBCL); format: cell-based; settings: Homo sapiens, 48 hours
Method: (§1) Cell proliferation was analyzed after 48 hours of in vitro treatment using the CellTiter 96 Aqueous One Solution Cell Proliferation Assay (Promega, Madison, Wis.). This is a colorimetric method for determining the number of viable cells in proliferation.
(§2) For the assay, suspension cells were cultured by triplicate at a density of 1×10^6 cells/ml in 96-well plates (100.000 cells/well, 100 μl/well), except for OCILY-3 and OCILY-10 cell lines which were cultured at a density of 0.5×10^6 cells/ml (50.000 cells/well, 100 μl/well) and for HepG2, Hep3B and PLC/PRF/5 cell ines which were cultured at a density of 3000 cells/well, 100 μl/well). Adherent cells were obtained from 80-90% confluent flasks and 100 μl of cells were seeded at a density of 5000 cells/well in 96-well plates by triplicate. Before addition of the compounds, adherent cells were allowed to attach to the bottom of the wells for 12 hours. […]
(§3) After 48 hours of treatment, plates with suspension cells were centrifuged at 800 g for 10 minutes and medium was removed. […] After 1-3 hours of incubation at 37° C., absorbance was measured at 490 nm in a 96-well plate reader. The background absorbance was measured in wells with only cell line medium and solution reagent. Data was calculated as a percentage of total absorbance of treated cell/absorbance of non treated cells. […]

KMS28BM = test: Cell proliferation assay, KMS28BM (MM); format: cell-based; settings: KMS-28BM, 48 hours
Method: as §1, §2, §3

SU-DHL-7 = test: Cell proliferation assay, SU-DHL-7 (GC-DLBCL); format: cell-based; settings: 48 hours
Method: as §1, §2, §3

HBL-2 = test: Cell proliferation assay, HBL-2 (MCL); format: cell-based; settings: HBL2, 48 hours
Method: as §1, §2, §3

OCI-Ly10 = test: Cell proliferation assay, OCI-Ly10 (ABC-DLBCL); format: cell-based; settings: Homo sapiens, 48 hours of treatment, Table 3
Method: as §1
For the assay, suspension cells were cultured by triplicate at a density of 1×10^6 cells/ml in 96-well plates (100.000 cells/well, 100 μl/well), except for OCILY-3 and OCILY-10 cell lines which were cultured at a density of 0.5×10^6 cells/ml (50.000 cells/well, 100 μl/well) and for HepG2, Hep3B and PLC/PRF/5 cell ines which were cultured at a density of 3000 cells/well, 100 μl/well). Adherent cells were obtained from 80-90% confluent flasks and 100 μl of cells were seeded at a density of 5000 cells/well in 96-well plates by triplicate. Before addition of the compounds, adherent cells were allowed to attach to the bottom of the wells for 12 hours. In all cases, only the 60 inner wells were used to avoid any border effects.
After 48 hours of treatment, plates with suspension cells were centrifuged at 800 g for 10 minutes and medium was removed. The plates with adherent cells were flicked to remove medium. Then, cells were incubated with 100 ul/well of medium and 20 ul/well of CellTiter 96 Aqueous One Solution reagent. After 1-3 hours of incubation at 37° C., absorbance was measured at 490 nm in a 96-well plate reader. The background absorbance was measured in wells with only cell line medium and solution reagent. Data was calculated as a percentage of total absorbance of treated cell/absorbance of non treated cells.

CEMO-1 = test: Cell proliferation assay, CEMO-1 (ALL); format: cell-based, human; settings: Homo sapiens
OCI-Ly7 = test: Cell proliferation assay, OCI-Ly7 (GC-DLBCL); format: cell-based; settings: Homo sapiens, 48 hours
Method: as §1, §2, §3

PEER = test: Cell proliferation assay, PEER (ALL); format: cell-based; settings: 48 hours
Method: as §1, §2, §3

## COc1cc2c(NC3CCN(C)CC3)cc(-c3ccc(C)o3)nc2cc1OCCCN1CCCC1.O=C(O)C(F)(F)F [Compound 3-04, 6-methoxy-2-(5-methyl-2-furyl)-N-(1-methyl-4-piperidyl)-7-(3-pyrrolidin-1-ylpropoxy)quinolin-4-amine; 2,2,2-trifluoroacetic acid]
[1]; 2.5 mg/kg daily for 28 consecutive days i.v., after cells inoculation, control 57 days
  median survival: 91 days
[1]; 2.5 mg/kg daily for 28 days i.v., P=0.0009
  survival compared with the control (Kaplan-Meier, log-rank test): significantly prolonged survival
OCI-Ly1
  GI50: 100 to 1000 nM
KMS28BM
  GI50: 1000 to 10000 nM
SU-DHL-7
  GI50: 100 to 1000 nM
HBL-2
  GI50: 100 to 1000 nM
OCI-Ly10
  GI50: 100 to 1000 nM
CEMO-1; 48 hours of treatment, Table 3
  GI50: 100 to 1000 nM
CEMO-1; ALL, Table 5 comparison
  GI50: 100 to 1000 nM
OCI-Ly7
  GI50: 100 to 1000 nM
PEER
  GI50: 100 to 1000 nM
